Measurements taken from article PMC7351026, “Serum Half-Lives for Short- and Long-Chain Perfluoroalkyl Acids after Ceasing Exposure from Drinking Water Contaminated by Firefighting Foam” (Environmental Health Perspectives, 2020).

Test: PFAS levels in serum samples of airport employees (LC/MS/MS)
Excerpt: All 26 employees at the airport were invited for a blood sampling between 11 and 14 September 2018 (i.e., within 11 to 14 d after the termination of contaminated drinking-water exposure). Information on age, home address, employment history, working tasks, and sick leave and vacation days in August and September were collected by questionnaire. In addition, data on the number of glasses of water consumed per day, local fish consumption, and history of blood donation and medication were collected. For female employees, questions about menstruation, pregnancy, and duration of breast-feeding were asked.
The PFAS analysis in serum from the first sampling was immediately performed and personal results were reported to the employees. […] These 17 employees submitted four rounds of blood and first morning urine samples in parallel, at 1-month intervals. In total, there were five rounds of serum sampling (started from September) and four rounds of urine sampling (from October). For modeling of elimination, all samples were reanalyzed in a single batch. We obtained 83 serum samples with a median count of 5 (range: 4–5) samples per employee, and 59 urine samples with median of 4 (range: 1–4) samples per employee. Only one employee provided a single urine sample. The study was approved by the Regional Ethical Review Board in Lund, Sweden. All employees provided written informed consent.
Venous whole blood samples were obtained and were centrifuged for 10 min at 1,500×g at room temperature to isolate the serum on site. The serum samples were collected in 6-mL BD Vacutainer® Plus plastic serum tubes without gel (BD). Urine samples were collected in 13-mL polypropylene screw cap tubes (Sarstedt). Serum and urine samples were frozen at −20°C after sampling and transported to Lund using cold chain logistics. Serum and urine samples were stored at −80°C and −20°C , respectively, before analysis.
The serum samples, QC samples, and chemical blanks were prepared in 96-well plates with 1.5-mL flat-bottom glass vials (Biotech solutions). Serum samples were thawed for 1–2 h and mixed on a vortex shaker for approximately 10 s two times. Once after all samples were thawed and a second time before pipetting the serum to the plate. Before pipetting, the tip was pre-wetted several times, drawing a volume into the tip and dispensing it back into the tube. Sample preparation procedures for serum samples consisted of 25μL serum mixed with 25μL water, 25μL methanol, 25μL isotopically labeled internal standards in 50% acetonitrile (see Table S1), and 100μL acetonitrile. Thereafter, samples were mixed vigorous by shaking for 30 min and centrifuged at 2,600×g for 10 min at room temperature. The supernatant ( 0.2mL ) was transferred to 96-well plates with 0.5-mL conical glass vials (MicroLiter Analytical Supplies) and again centrifuged at 3,000×g for 10 min before analysis. The QC samples and chemical blanks were prepared following the same procedure as the serum samples. The calibration standards were prepared in FBS the same way as the samples, except for the addition of diluted reference standards of all analyzed compounds in 25μL of the methanol solution.
Aliquots of 4μL of the sample were analyzed using LC/MS/MS. For the analysis, a C18 column ( 4μm , 2.1mm i.d.×50mm , Genesis Lightning) was used prior to the injector to filter the mobile phases. The analytical column was an Aquity BEH ( 1.7μm , 2.1mm i.d.×100mm Waters). The mobile phases (A and B) were A: 5 mM ammonium acetate in water:methanol (50:50); and B: methanol. The mobile phase was kept at 0% B for 2.5 min after injection. A gradient was then applied over 11 min to 90% B, where it was then kept for 1.5 min. The column was then conditioned at 0% B for 2 min.

[1] = 1st sampling (September 2018), count 17
[2] = 2nd sampling (October 2018), count 17
[3] = 3rd sampling (November, 2018), count 17
[4] = 4th sampling (December 2018), count 16
[5] = 5th sampling (January 2019), count 16
[6] = employees participated in first blood sampling and repeated blood and urine sampling, N=17
[7] = employees participated in first blood sampling only, N=9, 11-14 d after end of exposure
[8] = median of first serum samples, all 26 airport employees

Row | SMILES | Serum PFAS level, 25 percentile [1] | Serum PFAS level, 75 percentile [1] | Serum PFAS level, Max [1] | Serum PFAS level, Median [1] | Serum PFAS level, Min [1] | Serum PFAS level, 25 percentile [2] | Serum PFAS level, 75 percentile [2] | Serum PFAS level, Max [2] | Serum PFAS level, Median [2] | Serum PFAS level, Min [2] | Serum PFAS level, 25 percentile [3] | Serum PFAS level, 75 percentile [3] | Serum PFAS level, Max [3] | Serum PFAS level, Median [3] | Serum PFAS level, Min [3] | Serum PFAS level, 25 percentile [4] | Serum PFAS level, 75 percentile [4] | Serum PFAS level, Max [4] | Serum PFAS level, Median [4] | Serum PFAS level, Min [4] | also measured
1 | O=S(=O)(O)C(F)(C(F)(F)F)C(F)(F)C(F)(F)C(F)(F)C(F)(F)C(F)(F)C(F)(F)F (stereo not drawn) [1m-PFOS, perfluoro-1-methylheptanesulfonate] | 0.48 | 1.8 | 4.1 | 1.0 | 0.32 | 0.54 | 1.4 | 4.0 | 0.89 | 0.26 | 0.54 | 1.5 | 4.4 | 0.88 | 0.24 | 0.47 | 1.3 | 4.3 | 0.91 | 0.24 | Serum PFAS level, 25 percentile [5]: 0.51; Serum PFAS level, 75 percentile [5]: 1.3; Serum PFAS level, Max [5]: 4.5; Serum PFAS level, Median [5]: 0.97; Serum PFAS level, Min [5]: 0.26; PFAS in first serum sample, median (range) [6]: 1.0 (0.32–4.1) ng/mL; PFAS in first serum sample, median (range) [7]: 0.52 (0.25–2.7) ng/mL; Initial serum PFAS level, max (females (N=7)): 1.1 ng/mL; Initial serum PFAS level, median (females (N=7)): 0.58 ng/mL; Initial serum PFAS level, min (females (N=7)): 0.39 ng/mL; Initial serum PFAS level, Max (males (N=19)): 4.1 ng/mL; Initial serum PFAS level, Min (males (N=19)): 0.25 ng/mL; Initial serum PFAS level, median (males (N=19)): 1.1 ng/mL
2 | O=S(=O)(O)C(F)(F)C(F)(F)C(F)(F)C(F)(F)C(F)(F)C(F)(F)C(F)(F)C(F)(F)F [L-PFOS, linear perfluorooctane sulfonic acid] | 7.7 | 15 | 28 | 11 | 5.5 | 7.6 | 16 | 24 | 10 | 4.1 | 7.3 | 16 | 23 | 11 | 4.7 | 7.4 | 14 | 24 | 9.8 | 4.4 | Serum PFAS level, 25 percentile [5]: 9.1; Serum PFAS level, 75 percentile [5]: 16; Serum PFAS level, Max [5]: 23; Serum PFAS level, Median [5]: 10; Serum PFAS level, Min [5]: 4.5; Serum level in the first samples, median (range) (all 26 airport employees): 9.5 (5.4–28) ng/mL; PFAS in first serum sample, median (range) [6]: 11 (5.5–28) ng/mL; PFAS in first serum sample, median (range) [7]: 6.5 (5.4–13) ng/mL; Initial serum PFAS level, max (females (N=7)): 13 ng/mL; Initial serum PFAS level, median (females (N=7)): 9.3 ng/mL; Initial serum PFAS level, min (females (N=7)): 5.5 ng/mL; Relative composition of PFAS in serum, weight basis (first serum samples, all 26 airport employees): 8.6%; Relative composition of PFAS in serum, molar concentration basis (first serum samples, all 26 airport employees, listed as PFOS (linear)): 7.0%; Initial serum PFAS level, Max (males (N=19)): 28 ng/mL; Initial serum PFAS level, Min (males (N=19)): 5.4 ng/mL; Initial serum PFAS level, median (males (N=19)): 10 ng/mL; Serum concentration, molar basis [8]: 0.019; Serum concentration, weight basis [8]: 9.5; Serum level, median (range) (second to fifth samplings, 17 airport employees): 10 (4.1–24) ng/mL
